Counter-ions that a name gives are not always drawn.
Target: human MAT2A enzyme (Homo sapiens (Human), UniProt P31153)
Assay: In vitro enzymatic inhibition activity assay on MAT2A (PiColorLock phosphate detection)
Format: biochemical
Conditions: purified human MAT2A 10 nM, ATP 50 μM, L-methionine 100 μM, 6 h at 23° C.; read-out: MAT2A inhibitory activity IC50
Experimental: Enzymatic activity assays of compounds of this patent against MAT2A (to detect half inhibitory concentration IC50 values of the compounds) were performed using the phosphate detection kit PiColorLockTM (ab270004, purchased from Abcam). This method utilized the principle that purified human MAT2A enzyme catalyzes the formation of S-adenosylmethionine (SAM) from L-methionine and ATP to release free phosphate, and used the spectrophotometric method to quantify phosphate, so as to determine the enzymatic activity of MAT2A. Compounds were diluted in a 10-fold gradient starting at 1 mM with 100% DMSO (for a total of 8 concentrations) and 2 μL of each concentration was added to 48 μL of reaction buffer (50 mM Tris-HCl PH 7.5, 50 mM KCl, 10 mM MgCl2, 0.01% Brij-35, 0.01% BSA, 1 mM DTT) and mixed well. The final diluted compound was prepared, and 5 μL of MAT2A enzyme (final concentration of 10 nM), 5 μL of ATP (final concentration of 50 μM), and 5 μL of L-methionine (final concentration of 100 μM) were added to each well of a 384-well plate (#3701, purchased from CORNING). After the 384-well plate was placed in the incubator at 23° C. for 6 h, 5 μL of PiColorLock reagent diluted Accelerator (dilution ratio 1:100) was added to each well, and the reaction was stopped by incubating in the incubator at 23° C. for 5 min. 2 μL of Stabiliser was added, the absorbance was read at 630 nm on BMG CLARIOstar, and the IC50 value of the compound was calculated by using GraphPad Prism software.
Under the conditions of this experiment, the inhibition of MAT2A by test compounds can be expressed as an IC50 value for the inhibition of the level of phosphate production during the enzymatic reaction.

Sequence of human MAT2A enzyme (P31153 whole entry): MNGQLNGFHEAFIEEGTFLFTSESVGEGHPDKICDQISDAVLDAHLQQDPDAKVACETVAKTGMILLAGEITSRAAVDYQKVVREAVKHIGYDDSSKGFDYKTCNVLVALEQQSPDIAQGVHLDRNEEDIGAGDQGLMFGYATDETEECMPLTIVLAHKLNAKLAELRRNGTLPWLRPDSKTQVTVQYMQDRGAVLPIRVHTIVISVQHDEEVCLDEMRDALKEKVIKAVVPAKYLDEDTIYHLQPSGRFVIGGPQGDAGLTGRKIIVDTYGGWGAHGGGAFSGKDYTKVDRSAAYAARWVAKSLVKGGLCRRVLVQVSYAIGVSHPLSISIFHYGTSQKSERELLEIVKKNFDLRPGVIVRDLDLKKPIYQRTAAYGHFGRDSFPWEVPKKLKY

| SMILES | IC50 [nM] |
| --- | --- |
| Cc1ccccc1-n1c(=O)c(C(=O)OC2CC2)c(N)c2ccc(I)cc21 [Example 52, cyclopropyl 4-amino-7-iodo-1-(2-methylphenyl)-2-oxo-1,2-dihydroquinolin-3-carboxylate] | 2.38 |
| COC(=O)c1c(N)c2ccc(C(F)(F)F)cc2n(-c2ccc(C(C)O)c(F)c2)c1=O (stereo not shown) [Example 158, methyl 4-amino-1-(3-fluoro-4-(1-hydroxyethyl)phenyl)-2-oxo-7-(trifluoromethyl)-1,2-dihydroquinoline-3-carboxylate] | 3.83 |
| [2H]C([2H])([2H])OC(=O)c1c(N)c2ccc(Br)cc2n(-c2ccc(N)cc2)c1=O [Example 189, methyl-d3 4-amino-1-(4-aminophenyl)-7-bromo-2-oxo-1,2-dihydroquinolin-3-carboxylate] | 0.32 |
| COC(=O)c1c(N)c2ccc(Br)cc2n(-c2ccc3nccnc3c2)c1=O [Example 220, methyl 4-amino-7-bromo-2-oxo-1-(quinoxalin-6-yl)-1,2-dihydroquinoline-3-carboxylate] | 2.07 |
| COC(=O)c1c(N)c2ccc(I)cc2n(Cc2ccccc2)c1=O [Example 28, methyl 4-amino-1-benzyl-7-iodo-2-oxo-1,2-dihydroquinoline-3-carboxylate] | 3.62 |
| COC(=O)c1c(N)c2ccc(Br)cc2n(Cc2ccccc2)c1=O [Example 30, methyl 4-amino-1-benzyl-7-bromo-2-oxo-1,2-dihydroquinoline-3-carboxylate] | 6.1 |
| Nc1c(C(=O)OC2CC2)c(=O)n(-c2ccccc2)c2cc(I)ccc12 [Example 50, cyclopropyl 4-amino-7-iodo-2-oxo-1-phenyl-1,2-dihydroquinolin-3-carboxylate] | 4.57 |
| CNc1ccc(-n2c(=O)c(C(=O)OC)c(N)c3ccc(C(F)(F)F)cc32)cc1 [Example 115, methyl 4-amino-1-(4-(methylamino)phenyl)-2-oxo-7-(trifluoromethyl)-1,2-dihydroquinoline-3-carboxylate hydrochloride] | 2.89 |
| COC(=O)c1c(N)c2ccc(Br)cc2n(-c2cccc3c2COC3)c1=O [Example 222, methyl 4-amino-7-bromo-1-(1,3-dihydro-2-benzofuran-4-yl)-2-oxo-1,2-dihydroquinoline-3-carboxylate] | 8.38 |
| COC(=O)c1c(N)c2ccc(C(F)(F)F)nc2n(-c2cnc(Cl)cc2C)c1=O [Example 204, methyl 4-amino-1-(6-chloro-4-methylpyridin-3-yl)-2-oxo-7-(trifluoromethyl)-1,2-dihydro-1,8-naphthyridine-3-carboxylate] | 4.62 |
| COC(=O)c1c(N)c2ccc(I)cc2n(-c2cccc3c2CCO3)c1=O [Example 59, methyl 4-amino-1-(2,3-dihydro-1-benzofuran-4-yl)-7-iodo-2-oxo-1,2-dihydro quinoline-3-carboxylate] | 5.12 |
| COC(=O)c1c(N)c2ccc(Br)cc2n(-c2ccc(Cl)cc2C)c1=O [Example 152, methyl 4-amino-7-bromo-1-(4-chloro-2-methylphenyl)-2-oxo-1,2-dihydroquinoline-3-carboxylate] | 1.64 |
| N#Cc1c(N)c2ccc(I)cc2n(-c2ccccc2)c1=O [Example 4, 4-amino-7-iodo-2-oxo-1-phenyl-1,2-dihydroquinolin-3-carbonitrile] | 2.28 |
| COC(=O)c1c(N)c2ccc(C(F)(F)F)cc2n(-c2cccc3ccncc23)c1=O [Example 192, methyl 4-amino-1-(isoquinolin-8-yl)-2-oxo-7-(trifluoromethyl)-1,2-dihydro quinoline-3-carboxylate] | 6.47 |
| COC(=O)c1c(N)c2ccc(C3CC3)cc2n(-c2ccc(Cl)cc2)c1=O [Example 134, methyl 4-amino-1-(4-chlorophenyl)-7-cyclopropyl-2-oxo-1,2-dihydro quinoline-3-carboxylate] | 2.01 |
| COC(=O)c1c(N)c2ccc(C(F)(F)F)cc2n(-c2ccc(I)cc2)c1=O [Example 125, methyl 4-amino-1-(4-iodophenyl)-2-oxo-7-(trifluoromethyl)-1,2-dihydroquinoline-3-carboxylate] | 2.67 |
| COC(=O)c1c(N)c2ccc(Br)cc2n(-c2ccc(OC)cc2)c1=O [Example 87, methyl 4-amino-7-bromo-1-(4-methoxyphenyl)-2-oxo-1,2-dihydroquinoline-3-carboxylate] | 1.86 |
| C=Cc1ccc2c(N)c(C(=O)OC)c(=O)n(-c3cccc4cnccc34)c2c1 [Example 185, methyl 4-amino-1-(isoquinolin-5-yl)-2-oxo-7-vinyl-1,2-dihydroquinoline-3-carboxylate] | 8.94 |

Other lines, results leading:

| IC50 [nM] | SMILES |
| --- | --- |
| 1.94 | COC(=O)c1c(N)c2ccc(C(F)F)cc2n(-c2ccc(C(C)O)cc2)c1=O (stereo not shown) [Example 336, methyl 4-amino-7-(difluoromethyl)-1-(4-(1-hydroxyethyl)phenyl)-2-oxo-1,2-dihydroquinoline-3-carboxylate] |
| 0.97 | [2H]C([2H])([2H])OC(=O)c1c(N)c2ccc(C(F)(F)F)cc2n(-c2ccc(N)cc2)c1=O [Example 412, methyl-d3 4-amino-1-(4-aminophenyl)-7-(trifluoromethyl)-2-oxo-1,2-dihydroquinoline-3-carboxylate] |
| 0.92 | COC(=O)c1c(N)c2ccc(C(F)(F)F)cc2n(-c2ccc(N)cc2)c1=O [Example 273, methyl 4-amino-1-(4-aminophenyl)-2-oxo-7-(trifluoromethyl)-1,2-dihydroquinoline-3-carboxylate] |
| 2.99 | COC(=O)c1c(N)c2ccc(Br)nc2n(-c2cnc(Cl)cc2C)c1=O [Example 249, methyl 4-amino-7-bromo-1-(6-chloro-4-methylpyridin-3-yl)-2-oxo-1,2-dihydro-1,8-naphthyridine-3-carboxylate] |
| 0.7 | COC(=O)c1c(N)c2ccc(C(F)(F)F)nc2n(-c2ccc3ccncc3c2)c1=O [Example 283, methyl 4-amino-1-(isoquinolin-7-yl)-2-oxo-7-(trifluoromethyl)-1,2-dihydro-1,8-naphthyridine-3-carboxylate] |
| 0.6 | [2H]C([2H])([2H])OC(=O)c1c(N)c2ccc(Br)cc2n(-c2ccc(C(C)O)cc2)c1=O (stereo not shown) [Example 311, methyl-d3 4-amino-7-bromo-1-(4-(1-hydroxyethyl)phenyl)-2-oxo-1,2-dihydroquinoline-3-carboxylate] |
| 4.18 | COC(=O)c1c(N)c2ccc(C(F)(F)F)cc2n(-c2cccc3[nH]ccc23)c1=O [Example 229, methyl 4-amino-1-(1H-indol-4-yl)-2-oxo-7-(trifluoromethyl)-1,2-dihydroquinoline-3-carboxylate] |
| 1.25 | COC(=O)c1c(N)c2ccc(C(F)F)cc2n(-c2ccc(N)cc2)c1=O [Example 327, methyl 4-amino-1-(4-aminophenyl)-2-oxo-7-(difluoromethyl)-1,2-dihydro quinoline-3-carboxylate] |
| 1.08 | COC(=O)c1c(N)c2ccc(I)cc2n(-c2ccc(C)nc2C)c1=O [Example 294, methyl 4-amino-1-(2,6-dimethylpyridin-3-yl)-2-oxo-7-iodo-1,2-dihydroquinoline-3-carboxylate] |
| 2.3 | COC(=O)c1c(N)c2c(F)cc(Br)cc2n(-c2ccc(N)cc2)c1=O [Example 339, methyl 4-amino-1-(4-aminophenyl)-7-bromo-5-fluoro-2-oxo-1,2-dihydroquinoline-3-carboxylate] |
| 2.2 | COC(=O)c1c(N)c2ccc(C(F)(F)F)nc2n(-c2ccc(N)cc2C)c1=O [Example 282, methyl 4-amino-1-(4-amino-2-methylphenyl)-2-oxo-7-(trifluoromethyl)-1,2-dihydro-1,8-naphthyridine-3-carboxylate] |
| 0.92 | CCOC(=O)c1c(N)c2ccc(C(F)(F)F)cc2n(-c2ccc([C@@H](C)O)cc2)c1=O [Example 330, ethyl 4-amino-1-(4-(1-(R)-hydroxyethyl)phenyl)-2-oxo-7-(trifluoromethyl)-1,2-dihydroquinoline-3-carboxylate] |
| 2.06 | COC(=O)c1c(N)c2ccc(OC(F)F)cc2n(-c2ccc(C(C)O)cc2)c1=O (stereo not shown) [Example 335, methyl 4-amino-7-(difluoromethoxy)-1-(4-(1-hydroxyethyl)phenyl)-2-oxo-1,2-dihydroquinoline-3-carboxylate] |
| 1 | COC(=O)c1c(N)c2ccc(C(F)F)nc2n(-c2ccc(C(C)O)cc2)c1=O (stereo not shown) [Example 366, methyl 4-amino-7-(difluoromethyl)-1-(4-(1-hydroxyethyl)phenyl)-2-oxo-1,2-dihydro-1,8-naphthyridine-3-carboxylate] |
| 6.06 | COC(=O)c1c(N)c2ccc(Br)cc2n(-c2ccccc2N)c1=O [Example 250, methyl 4-amino-1-(2-aminophenyl)-7-bromo-2-oxo-1,2-dihydroquinoline-3-carboxylate] |
| 1.84 | COC(=O)c1c(N)c2ccc(Cl)cc2n(-c2ccc(N)cc2)c1=O [Example 322, methyl 4-amino-7-chloro-1-(4-aminophenyl)-2-oxo-1,2-dihydroquinoline-3-carboxylate] |

Reference: patent publication US20250221979A1, “NOVEL HETEROCYCLIC COMPOUND” (SHOUYAO HOLDINGS (BEIJING) CO., LTD., priority 2022, published 2025)
